A short description of the data set: MRI measurements of relaxation rates and relaxivities. It is filed as physicochemical. To be noted: for r1: relaxivity, MRI measurement. From the text: MRI measurements: See Engström et al., Magn Reson Mater Phy, 19 (2006) 180-186.
Commercially available and clinically used Gd^3+-DPTA has under the same conditions lower values for 1/T1 and 1/T2 (e.g. 1/T1=0.005 ms^−1). Variations in relaxivities (r1 and r2) and in the relaxivity ratio (r2/r1) are illustrated by: […]

The structures appear in SMILES notation.

Compound `O=C([O-])CN(CCN(CC(=O)[O-])CC(=O)O)CCN(CC(=O)[O-])CC(=O)O.[Gd+3]` [Gd^3+-DTPA] displayed a r1 of 4.1 mM⁻¹ s⁻¹. Also, the “1/T1 (1 mM)” value (relaxation rate at 1 mM Gd) was 0.005 ms^−1. Further, where the note is “relaxation rate, result in words”, the 1/T2 result is on record as “lower”.
`[Cl][Gd]([Cl])[Cl]` [Gd^3+ (GDCl3)] gave a r1 of 10.5 mM⁻¹ s⁻¹.

For the origin of these results see patent publication US20100111859A1, “Visualization of Biological Material by the Use of Coated Contrast Agents” (priority 2007, published 2010).
